Data: patent publication US20250257061A1, “COMPOSITIONS AND METHODS FOR TREATING CANCER AND REDUCING WNT MEDIATED EFFECTS” (StemSynergy Therapeutics, Inc., priority 2024, published 2025)
Where two headings read alike, the source gives them in different places.

Experiments:
[1] = tested on: Wnt-dependent HCT116 cell line; assay: Viability assay using Wnt-dependent HCT116 cell line (Cell Titer Glo); type: cell-based
Procedure: All compounds were tested using the human cell line HEK STF293. This cell line carries a Wnt reporter (TCF/LEF1 promoter), which drives expression of the firefly luciferase protein. The level of Wnt activity is directly correlated with the level of luciferase activity (determined using a simple assay). Compounds that inhibit Wnt signaling by reducing luciferase activity in these two cell lines are further tested biochemically. […] Compounds were further tested in a Viability assay using Wnt-dependent HCT116 cell line. HEK293 cells were seeded in a 6-well plate at approximately 8.0×10^5 cells (2 mL per well). On the first day, Wnt3a-conditioned media (1:1) and compounds (1:100) were added to the plated cells. The final concentrations of compounds were 1 μM, 500 nM, and 100 nM. Vehicle (DMSO) and a Wnt3a-conditioned media plus Vehicle samples were also prepared as controls. Lysates were collected (with non-denaturing lysis buffer) after 24 hours incubation, and protein concentrations determined by Bradford Assay. Immunoblotting with an anti-beta-catenin antibody (equivalent amounts of protein/lane for each condition) were subsequently performed to determine beta-catenin levels. HCT116 cells were seeded at 2,500 cells/well in a 96-well dish (Volume: 100 μL/well). On the second day, the 10 mM stock solution of each test compound was thawed at room temperature. Dilutions of the test compound were prepared in DMSO in a V-bottom 96-well plate. The stock compound solution, DMSO-diluted compound solutions, and DMSO were further diluted 500-fold in cell culture media, and 100 μL of the compound- or DMSO-containing cell culture media was added to each well of the cells. […] The final DMSO concentration was 0.1% in all wells. On the fifth day, 150 μL of media was removed from each well. 50 μL/well Cell Titer Glo reagent (Promega) was added to each well. The plate was shaken at 130 rpm for 15 minutes at room temperature, and the cell viability was determined using a luminescence plate reader. All compounds were tested using the human cell line HEK STF293. This cell line carries a Wnt reporter (TCF/LEF1 promoter), which drives expression of the firefly luciferase protein. The level of Wnt activity is directly correlated with the level of luciferase activity (determined using a simple assay). Compounds that inhibit Wnt signaling by reducing luciferase activity in these two cell lines are further tested biochemically. […] Compounds were further tested in a Viability assay using Wnt-dependent HCT116 cell line. HEK293 cells were seeded in a 6-well plate at approximately 8.0×10^5 cells (2 mL per well). On the first day, Wnt3a-conditioned media (1:1) and compounds (1:100) were added to the plated cells. The final concentrations of compounds were 1 μM, 500 nM, and 100 nM. Vehicle (DMSO) and a Wnt3a-conditioned media plus Vehicle samples were also prepared as controls. Lysates were collected (with non-denaturing lysis buffer) after 24 hours incubation, and protein concentrations determined by Bradford Assay. Immunoblotting with an anti-beta-catenin antibody (equivalent amounts of protein/lane for each condition) were subsequently performed to determine beta-catenin levels. HCT116 cells were seeded at 2,500 cells/well in a 96-well dish (Volume: 100 μL/well). On the second day, the 10 mM stock solution of each test compound was thawed at room temperature. Dilutions of the test compound were prepared in DMSO in a V-bottom 96-well plate. The stock compound solution, DMSO-diluted compound solutions, and DMSO were further diluted 500-fold in cell culture media, and 100 μL of the compound- or DMSO-containing cell culture media was added to each well of the cells. […] The final DMSO concentration was 0.1% in all wells. On the fifth day, 150 μL of media was removed from each well. 50 μL/well Cell Titer Glo reagent (Promega) was added to each well. The plate was shaken at 130 rpm for 15 minutes at room temperature, and the cell viability was determined using a luminescence plate reader. […]

[2] = tested on: Wnt reporter (TCF/LEF1 promoter); assay: HEK STF293 Wnt reporter (TOPFlash) luciferase assay, Steady Glo normalised to Cell Titer; type: cell-based, human
Procedure: All compounds were tested using the human cell line HEK STF293. This cell line carries a Wnt reporter (TCF/LEF1 promoter), which drives expression of the firefly luciferase protein. The level of Wnt activity is directly correlated with the level of luciferase activity (determined using a simple assay). Compounds that inhibit Wnt signaling by reducing luciferase activity in these two cell lines are further tested biochemically. […] Compounds were further tested in a Viability assay using Wnt-dependent HCT116 cell line. Compounds were prepared as 10 mM stocks for each compound in DMSO. Dilutions were prepared in a 96-well plate in DMSO. The stock dilutions are as follows: 10 mM, 1 mM, 100 μM, 10 μM, 100 nM, and 10 nM. Plates were sealed and stored at −20° C. […] On the first day, Wnt3a-conditioned media (1:1) were added along with diluted compounds (1:100). […] The final concentrations should therefore be 100 μM, 10 μM, 1 μM, 100 nM, 10 nM, and 1 nM. On the second day, the media was removed and 75 μL of Passive Lysis Buffer (Promega) is added to each well. The plate was shaken at 130 rpm for 15 minutes. For the Steady Glo assay, 45 μL of the lysis was removed and added to a white 96-well plate containing 45 μL/well of Steady Glo solution (Promega). For the Cell Titer assay, 25 μL of the lysis was transferred to a white 96-well plate containing 25 μL/well of Cell Titer solution (Promega). Both Steady Glo and Cell Titer assays were read with a luminescence plate reader. When determining EC50, the Steady Glo values were divided by the Cell Titer values to normalize for cell number. All compounds were tested using the human cell line HEK STF293. This cell line carries a Wnt reporter (TCF/LEF1 promoter), which drives expression of the firefly luciferase protein. The level of Wnt activity is directly correlated with the level of luciferase activity (determined using a simple assay). Compounds that inhibit Wnt signaling by reducing luciferase activity in these two cell lines are further tested biochemically. […] Compounds were further tested in a Viability assay using Wnt-dependent HCT116 cell line. Compounds were prepared as 10 mM stocks for each compound in DMSO. Dilutions were prepared in a 96-well plate in DMSO. The stock dilutions are as follows: 10 mM, 1 mM, 100 μM, 10 μM, 100 nM, and 10 nM. Plates were sealed and stored at −20° C. […] On the first day, Wnt3a-conditioned media (1:1) were added along with diluted compounds (1:100). […] The final concentrations should therefore be 100 μM, 10 μM, 1 μM, 100 nM, 10 nM, and 1 nM. On the second day, the media was removed and 75 μL of Passive Lysis Buffer (Promega) is added to each well. The plate was shaken at 130 rpm for 15 minutes. For the Steady Glo assay, 45 μL of the lysis was removed and added to a white 96-well plate containing 45 μL/well of Steady Glo solution (Promega). For the Cell Titer assay, 25 μL of the lysis was transferred to a white 96-well plate containing 25 μL/well of Cell Titer solution (Promega). Both Steady Glo and Cell Titer assays were read with a luminescence plate reader. When determining EC50, the Steady Glo values were divided by the Cell Titer values to normalize for cell number. All compounds were tested using the human cell line HEK STF293. This cell line carries a Wnt reporter (TCF/LEF1 promoter), which drives expression of the firefly luciferase protein. The level of Wnt activity is directly correlated with the level of luciferase activity (determined using a simple assay). Compounds that inhibit Wnt signaling by reducing luciferase activity in these two cell lines are further tested biochemically. […] Compounds were further tested in a Viability assay using Wnt-dependent HCT116 cell line. Compounds were prepared as 10 mM stocks for each compound in DMSO. Dilutions were prepared in a 96-well plate in DMSO. The stock dilutions are as follows: 10 mM, 1 mM, 100 μM, 10 μM, 100 nM, and 10 nM. Plates were sealed and stored at −20° C. […]

[3] = Homo sapiens, HCT-116, Examples for Formulae (IV), (V), (VI), and (VII), HCT116 cells, read-out: Viability IC50 category
[4] = Homo sapiens, STF/293, Examples for Formulae (IV), (V), (VI), and (VII), HEK STF293 cells, Wnt3a-conditioned media, read-out: TOPFlash IC50 category
[5] = Examples for Formulae (IV), (V), (VI), and (VII), HCT116 cells, read-out: Viability IC50 category
[6] = Examples for Formulae (IV), (V), (VI), and (VII), HEK STF293 cells, Wnt3a-conditioned media, read-out: TOPFlash IC50 category
[7] = Homo sapiens, HCT-116, read-out: Viability IC50 category
[8] = Homo sapiens, STF/293, read-out: TOPFlash IC50 category

| SMILES | IC50 [1, 3] | IC50 [2, 4] | also measured |
| --- | --- | --- | --- |
| CC(C)S(=O)(=O)N(C)c1nc(-c2ccc(F)cc2)c(C(=O)Nc2nc(-c3ccccn3)cs2)o1 [Example 58] | < 200 nM | < 200 nM | – |
| Cc1nnc(-c2ccc(-c3nc(C)oc3C(=O)Nc3nc(-c4ccccn4)cs3)cc2)o1 [Example 65] | – | – | IC50 [1, 5]: < 200 nM; IC50 [2, 6]: < 200 nM |
| CN(c1nc(-c2ccc(S(C)(=O)=O)cc2)c(C(=O)Nc2nc(-c3ccccn3)cs2)o1)S(=O)(=O)c1ccc(C(F)(F)F)cc1 [Example 75] | – | – | IC50 [1, 5]: < 200 nM; IC50 [2, 6]: 200 to 500 nM |
| COc1ccc(S(=O)(=O)N(C)c2ncc(C(=O)Nc3nc(-c4ccccn4)cs3)o2)cc1 [Example 39] | 500 to 1000 nM | 500 to 1000 nM | – |
| CC(C)CS(=O)(=O)N(C)c1nc(-c2ccc(F)cc2)c(C(=O)Nc2nc(-c3ccccn3)cs2)o1 [Example 60] | < 200 nM | < 200 nM | – |
| O=C(Nc1nc(-c2ccccn2)cs1)c1ocnc1-c1ccc(C(=O)N2CCOCC2)cc1 [Example 42] | 500 to 1000 nM | 500 to 1000 nM | – |
| CN(C(=O)c1ccccc1Cl)c1nc(C(F)(F)F)c(C(=O)Nc2nc(-c3ccccn3)cs2)o1 [Example 78] | 1000 to 10000 nM | 500 to 1000 nM | – |
| O=C(Nc1nc(-c2ccccn2)cs1)c1oc(CO)nc1-c1ccc(F)cc1 [Example 70, 4-(4-fluorophenyl)-2-(hydroxymethyl)-N-(4-(pyridin-2-yl)thiazol-2-yl)oxazole-5-carboxamide] | – | – | IC50 [1, 7]: 200 to 500 nM; IC50 [2, 8]: 500 to 1000 nM |
| Cc1onc(-c2c(F)cccc2Cl)c1C(=O)Nc1nc(-c2ccccn2)cs1 [Example 14] | 200 to 500 nM | < 200 nM | – |
| CCc1nc(-c2ccc(F)cc2)c(C(=O)Nc2nc(-c3ccccn3)cs2)o1 [Example 13] | < 200 nM | < 200 nM | – |
| CN(C(=O)c1ccc(F)cc1)c1nc(-c2ccc(F)cc2)c(C(=O)Nc2nc(-c3ccccn3)cs2)o1 [Example 76] | < 200 nM | < 200 nM | – |
| COc1ncccc1-c1noc(C)c1C(=O)Nc1nc(-c2ccccn2)cs1 [Example 22] | – | – | IC50 [1, 7]: 200 to 500 nM; IC50 [2, 8]: 200 to 500 nM |
| CN1CCN(Cc2nc(-c3ccc(F)cc3)c(C(=O)Nc3nc(-c4ccccn4)cs3)o2)CC1 [Example 71] | 200 to 500 nM | 200 to 500 nM | – |
